Experimental data reported in publication PMC10138714, “Evaluation of Some Safety Parameters of Dual Histamine H3 and Sigma-2 Receptor Ligands with Anti-Obesity Potential” (International Journal of Molecular Sciences, 2023).
Values belong to the compound of their own block, whether it stands above or below them.

Assays:
[1] = system: rats; experiment: Heart rate and ECG intervals in rats; assay type: in vivo, male Wistar rats; conditions: 10 mg/kg i.p.
Description: (§1) Blood pressure measurement and ECG were performed on male Wistar rats weighing 200–220 g (six months old). Locomotor activity and chimney tests were performed on adult male Albino Swiss (CD-1) mice weighing 18–22 g ([…]). The animals were obtained from an accredited animal house at the Faculty of Pharmacy, Jagiellonian University Medical College, Krakow, Poland. The experimental groups consisted of 6–8 animals. The animals were housed in constant temperature (22–24 °C) and humidity (40–60%) facilities, exposed to 12:12 h light/dark cycles, and were maintained on a standard pellet diet with tap water available ad libitum. Rats and mice were housed in pairs or 8 animals per home cage, respectively.
In vivo electrocardiographic measurements were performed using an ASPEL ASCARD B5 apparatus, standard lead II, and a paper speed of 50 mm/s. The study was carried out after a single administration of the test compounds (10 mg/kg i.p.). […] The following parameters were then calculated and analyzed: duration of PQ, QT, QRS, RR intervals, and heart rate.

[2] = molecular target: σ2R; parameters: method as in PMID 34908391; conditions: cited from earlier work
[3] = molecular target: H3R; parameters: method as in PMID 34908391; conditions: cited from earlier work; for H3/σ1 / H3/σ2: ratio of Ki values
[4] = molecular target: T1, human ERG potassium channel (Kv11.1) (Homo sapiens, UniProt Q12809); experiment: Whole-cell automated patch clamp (QPatch16X), inhibition of hERG currents; assay type: cell-based; conditions: for IC50: CHO cells stably expressing human ERG, whole-cell, mean of three experiments, read-out: Mean IC50 ± SEM, inhibition of hERG currents; for Inhibition of hERG compared with verapamil: relative to reference compound verapamil
T1 construct: expressed in transfected cells
T1 sequence (Q12809 whole entry): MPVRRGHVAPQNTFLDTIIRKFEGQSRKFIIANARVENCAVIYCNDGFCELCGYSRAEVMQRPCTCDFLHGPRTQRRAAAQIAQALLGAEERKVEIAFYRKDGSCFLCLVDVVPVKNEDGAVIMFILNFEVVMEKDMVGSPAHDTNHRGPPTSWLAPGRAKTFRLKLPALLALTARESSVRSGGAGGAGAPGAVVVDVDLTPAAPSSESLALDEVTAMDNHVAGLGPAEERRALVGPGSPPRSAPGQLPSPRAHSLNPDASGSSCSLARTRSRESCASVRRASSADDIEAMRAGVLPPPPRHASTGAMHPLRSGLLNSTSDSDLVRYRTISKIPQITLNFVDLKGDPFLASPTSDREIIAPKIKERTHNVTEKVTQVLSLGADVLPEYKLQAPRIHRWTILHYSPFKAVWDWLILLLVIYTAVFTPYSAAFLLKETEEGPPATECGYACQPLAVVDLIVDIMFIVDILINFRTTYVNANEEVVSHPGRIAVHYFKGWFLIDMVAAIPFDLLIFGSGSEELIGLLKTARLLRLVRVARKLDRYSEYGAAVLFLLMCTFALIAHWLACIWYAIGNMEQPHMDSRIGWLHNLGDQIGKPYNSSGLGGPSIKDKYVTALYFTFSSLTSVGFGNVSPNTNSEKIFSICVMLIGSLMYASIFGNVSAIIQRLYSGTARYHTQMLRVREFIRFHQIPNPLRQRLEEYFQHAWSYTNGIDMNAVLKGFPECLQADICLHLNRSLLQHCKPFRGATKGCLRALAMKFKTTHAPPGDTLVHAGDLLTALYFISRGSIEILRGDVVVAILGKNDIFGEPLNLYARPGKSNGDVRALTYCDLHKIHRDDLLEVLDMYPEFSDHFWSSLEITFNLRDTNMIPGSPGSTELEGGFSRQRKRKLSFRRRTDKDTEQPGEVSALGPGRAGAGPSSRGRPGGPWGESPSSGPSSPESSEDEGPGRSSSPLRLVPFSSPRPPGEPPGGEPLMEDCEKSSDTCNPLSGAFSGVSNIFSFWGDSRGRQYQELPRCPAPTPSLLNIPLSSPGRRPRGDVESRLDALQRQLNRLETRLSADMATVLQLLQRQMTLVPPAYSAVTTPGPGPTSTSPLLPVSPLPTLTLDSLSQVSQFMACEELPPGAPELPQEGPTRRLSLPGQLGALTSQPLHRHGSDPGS
Description: Electrophysiology experiments were performed on a QPatch16X automatic patch clamp platform (Sophion Bioscience, Ballerup, Denmark). Chinese hamster ovary (CHO) cells stably expressing the human ERG potassium channel (Kv11.1) were cultured using standard procedures. On the day of the experiment, cells were collected from the culture flask using TrypLE Express solution (Life Technologies, Thermo Fisher Scientific, Carlsbad, California, United States) and resuspended in EX-CELL ACF CHO serum-free medium (Merck KGaA, Sigma-Aldrich, Darmstadt, Germany), supplemented with 25 mM HEPES, 100 U/mL penicillin/streptomycin, and 0.04 mg/mL soybean trypsin inhibitor (all components from Sigma Aldrich).
The cells were placed in the lidless microtube and located onboard the automated electrophysiology instrument, where they were automatically relocated to a built-in centrifuge.
Cells were transferred to pipetting wells of single-use 16-channel planar patch chip plates (QPlate 16X, Sophion Bioscience, Ballerup, Denmark) and gigaseals were formed upon application of a combined suction/voltage protocol in a standard protocol supplied by Sophion Bioscience for CHO cells. Once the whole-cell mode was obtained, the cells were kept in a holding potential of -90 mV between the programmed stimulation protocols.
Whole-cell potassium currents were measured in response to repeatedly executed voltage protocols constituted of the following steps: brief clamping to −50 mV (200 ms), subsequent depolarization to 20 mV for 4000 ms, and final repolarization to −50 mV when the outward tail current was measured for 4000 ms.
The average current peak values determined in the presence of particular concentrations of the compound tested were subjected to a sigmoidal dose–response curve fitting, where the bottom plateau parameter was constrained to 0. The IC50 values were then calculated from the obtained sigmoidal dose–response curves. Data were analyzed using QPatch Assay Software (v5.0, Sophion Bioscience, Ballerup, Denmark) and represent the mean of three experiments carried out on distinct cells.

[5] = system: normotensive rats; experiment: Blood pressure in anesthetized normotensive rats (carotid artery cannulation); assay type: in vivo, male Wistar rats; conditions: single i.p. 10 mg/kg b.w.; for Decrease of diastolic blood pressure / Decrease of systolic blood pressure: 30–60 min after administration
Description: as §1
Rats were anesthetized with thiopental (70 mg/kg) via i.p. injection. The left carotid artery was cannulated with polyethylene tubing filled with a heparin solution in saline to facilitate pressure measurements using a PowerLab Apparatus (ADInstruments, Sydney, Australia). After a 20 min stabilization period, the test compounds were administered i.p. at a dose of 10 mg/kg b.w. in a constant volume of 1 mL/kg b.w. Blood pressure was recorded immediately before administration and 5, 10, 15, 20, 30, 40, 50, and 60 min after the administration of the test compound [47].

[6] = molecular target: σ1R; parameters: method as in PMID 34908391; conditions: cited from earlier work; for σ1/σ2: ratio of Ki values
[7] = system: mice; experiment: Locomotor activity in mice (activity cages, photobeam breaks); assay type: in vivo, male Albino Swiss (CD-1) mice; conditions: vs vehicle group
Description: as §1
Locomotor activity was individually recorded for each animal using specifically designed activity cages made of clear Perspex (40 cm × 40 cm × 31 cm, Activity Cage 7441, Ugo Basile, Italy). The cages were supplied with I.R. horizontal beam emitters connected to a counter that records the light-beam interruptions. The compounds suspensions were administered as i.p. injections 30 min before testing. Control animals received injections of vehicles. Each mouse was placed in a cage for a 30 min habituation period. After that time, the number of breaks in the photobeams was measured for 5 min, which is the same time as the observation period used in other tests.

[8] = system: rats fed a palatable diet; experiment: Plasma AlaT, AspaT, gGT and ALP activity after repeated administration in rats fed a palatable diet; assay type: in vivo; conditions: 10 mg/kg b.w. i.p. repeated; for Plasma AlaT activity: vs vehicle control fed palatable feed; for Plasma gGT activity: vs palatable feed-fed control group
Description: Standard diet ( 8% fats, 67% carbohydrates, and 25% proteins) contained 100 g feed—280 kcal. Rats fed a palatable diet had access to a diet consisting of milk chocolate with nuts, cheese, salted peanuts, and 7% condensed milk and simultaneously to standard feed (Labofeed B, Morawski Manufacturer Feed, Kcynia, Poland) for 4 weeks. The feeding was not in any way forced, and rats decided themselves when, what, and how much to eat. A palatable diet contained 100 g of peanuts—612 kcal; 100 mL of condensed milk—131 kcal; 100 g of milk chocolate—529 kcal; and 100 g of cheese—325 kcal.
The study evaluating the activities of alanine aminotransferase (AlaT), aspartate aminotransferase (AspaT), gamma-glutamyl transpeptidases (gGT), and alkaline phosphatase (ALP) was carried out after completing the excessive eating model experiments described in our previous work. Compounds were administered for twenty-eight days at a dose of 10 mg/kg b.w./day. On the 31st day of the experiment, 20 min after i.p. administration of heparin (5000 units/rat) and thiopental (70 mg/kg b.w.), blood was collected from the left carotid artery and then centrifuged at 600× g (15 min, 4 °C) in order to obtain the plasma. To determine the activities of AlaT, AapaT, gGT, and ALP in the plasma samples, a standard enzymatic spectrophotometric test (Biomaxima S.A., Lublin, Poland) was used.

[9] = system: mice; experiment: Motor coordination in the chimney test; assay type: in vivo, male Albino Swiss (CD-1) mice; conditions: for % of Mice Impaired: chimney test, 30 min after injection, n = 8
Description: as §1
The effect of tested compounds on motor impairment were quantified with the chimney test of Boissier et al. (1960). The mice were trained before the test, and only the animals able to get out of the chimney within 1 min were used at the experimental stage. The selected mice were placed in a 25 cm-long and 2.5 cm in diameter […] tube, which was reversed so that the mice could leave it only by climbing up backward until they reached the other end. The test was performed 30 min after injection (i.p.) of the examined compounds. Motor impairment was indicated by the inability of the animals to climb up backwards in the transparent tube within 60 s.

[10] = vs vehicle group with palatable feed

Locomotor activity ([7]; single i.p. 10 mg/kg b.w., 30 min before test): significantly increased
Locomotor activity ([7]; single i.p. 30 mg/kg b.w.): No significant changes
Plasma AlaT activity [8]: lower
Plasma ALP activity [8, 10]: lower plasma ALP activity
% of Mice Impaired ([9]; 10 mg/kg i.p.): 0%
% of Mice Impaired ([9]; 20 mg/kg i.p.): 12.5%
% of Mice Impaired ([9]; 30 mg/kg i.p.): 12.5%
Structure (SMILES): CCC(=O)c1ccc(OCCCCCCCCN2CCN(c3ccncc3)CC2)cc1 [KSK-74]
Heart rate ([1]; time 0 min): 381.8 ± 19.9 beats/min
PQ ([1]; time 0 min): 56.3 ± 4.1 ms
QRS ([1]; time 0 min): 20.0 ± 0.0 ms
QT ([1]; time 0 min): 62.5 ± 4.3 ms
Heart rate ([1]; time 15 min): 356.3 ± 18.9 beats/min
PQ ([1]; time 15 min): 53.8 ± 4.1 ms
QRS ([1]; time 15 min): 20.0 ± 0.0 ms
QT ([1]; time 15 min): 60.0 ± 5.0 ms
Heart rate ([1]; time 30 min): 355.3 ± 32.2 beats/min
PQ ([1]; time 30 min): 56.3 ± 2.2 ms
QRS ([1]; time 30 min): 20.0 ± 0.0 ms
QT ([1]; time 30 min): 61.3 ± 6.5 ms
Heart rate ([1]; time 45 min): 364.6 ± 18.1 beats/min
PQ ([1]; time 45 min): 57.5 ± 2.5 ms
QRS ([1]; time 45 min): 20.0 ± 0.0 ms
QT ([1]; time 45 min): 65.0 ± 6.1 ms
Heart rate ([1]; time 60 min): 370.8 ± 23.9 beats/min
PQ ([1]; time 60 min): 55.0 ± 5.0 ms
QRS ([1]; time 60 min): 20.0 ± 0.0 ms
QT ([1]; time 60 min): 62.5 ± 8.3 ms
Ki [2]: 65.9 nM
Ki [3]: 38.9 nM
H3/σ1 [3]: 0.14
H3/σ2 [3]: 0.59
IC50 [4]: 3400 ± 289 nM
Inhibition of hERG compared with verapamil [4]: almost seven times weaker
Decrease of diastolic blood pressure [5]: 10–13 mmHg
Decrease of systolic blood pressure [5]: approx. 12 mmHg
Ki [6]: 274 nM
σ1/σ2 [6]: 4.16

Locomotor activity ([7]; single i.p. 30 mg/kg b.w.): significant decrease
Plasma gGT activity [8]: statistically lower gGT activity
Plasma AlaT activity [8]: lower
Plasma ALP activity [8, 10]: lower plasma ALP activity
% of Mice Impaired ([9]; 10 mg/kg i.p.): 12.5%
% of Mice Impaired ([9]; 20 mg/kg i.p.): 0%
% of Mice Impaired ([9]; 30 mg/kg i.p.): 0%
Structure (SMILES): CC(=O)c1ccc(OCCCCCCCCN2CCN(c3ccncc3)CC2)cc1 [KSK-73]
Heart rate ([1]; time 0 min): 370.0 ± 23.9 beats/min
PQ ([1]; time 0 min): 56.3 ± 2.2 ms
QRS ([1]; time 0 min): 22.7 ± 5.4 ms
QT ([1]; time 0 min): 61.3 ± 2.2 ms
Heart rate ([1]; time 15 min): 375.5 ± 23.9 beats/min
PQ ([1]; time 15 min): 51.3 ± 2.2 ms
QRS ([1]; time 15 min): 22.7 ± 5.4 ms
QT ([1]; time 15 min): 63.8 ± 4.1 ms
Heart rate ([1]; time 30 min): 377.1 ± 27.3 beats/min
PQ ([1]; time 30 min): 51.3 ± 2.2 ms
QRS ([1]; time 30 min): 22.7 ± 5.4 ms
QT ([1]; time 30 min): 60.0 ± 7.1 ms
Heart rate ([1]; time 45 min): 395.8 ± 33.3 beats/min
PQ ([1]; time 45 min): 52.5 ± 2.5 ms
QRS ([1]; time 45 min): 20.0 ± 0.0 ms
QT ([1]; time 45 min): 58.8 ± 2.2 ms
Heart rate ([1]; time 60 min): 377.0 ± 26.4 beats/min
PQ ([1]; time 60 min): 53.8 ± 2.2 ms
QRS ([1]; time 60 min): 20.0 ± 0.0 ms
QT ([1]; time 60 min): 63.8 ± 6.5 ms
Ki [2]: 59.7 nM
Ki [3]: 40.5 nM
H3/σ1 [3]: 0.1
H3/σ2 [3]: 0.68
IC50 [4]: 2070 ± 402 nM
Inhibition of hERG compared with verapamil [4]: four times weaker
Decrease of diastolic blood pressure [5]: 10–14 mmHg
Decrease of systolic blood pressure [5]: approx. 12 mmHg
Ki [6]: 408 nM
σ1/σ2 [6]: 6.84

Locomotor activity ([7]; single i.p. 30 mg/kg b.w.): significant decrease
Plasma AspaT activity ([8]; relative to both control groups (standard or palatable feed)): higher AspaT activity
Plasma ALP activity ([8]; vs control group fed standard feed): greater ALP activity
Plasma gGT activity [8]: statistically lower gGT activity
% of Mice Impaired ([9]; 10 mg/kg i.p.): 25%
% of Mice Impaired ([9]; 20 mg/kg i.p.): 12.5%
% of Mice Impaired ([9]; 30 mg/kg i.p.): 25%
Structure (SMILES): c1ccc(-c2ccc(OCCCN3CCN(c4ccncc4)CC3)cc2)cc1 [KSK-61]
Heart rate ([1]; time 0 min): 373.2 ± 20.3 beats/min
PQ ([1]; time 0 min): 53 ± 1.6 ms
QRS ([1]; time 0 min): 20.8 ± 0.8 ms
QT ([1]; time 0 min): 56.3 ± 4.1 ms
Heart rate ([1]; time 15 min): 369.5 ± 9.5 beats/min
PQ ([1]; time 15 min): 52.8 ± 1.5 ms
QRS ([1]; time 15 min): 21.5 ± 0.5 ms
QT ([1]; time 15 min): 56.3 ± 2.2 ms
Heart rate ([1]; time 30 min): 380.2 ± 30.5 beats/min
PQ ([1]; time 30 min): 54.5 ± 3.5 ms
QRS ([1]; time 30 min): 21.8 ± 1.1 ms
QT ([1]; time 30 min): 58.8 ± 2.2 ms
Heart rate ([1]; time 45 min): 349.5 ± 21.3 beats/min
PQ ([1]; time 45 min): 53.3 ± 1.8 ms
QRS ([1]; time 45 min): 21.8 ± 0.8 ms
QT ([1]; time 45 min): 57.5 ± 4.3 ms
Heart rate ([1]; time 60 min): 360.4 ± 20.3 beats/min
PQ ([1]; time 60 min): 53 ± 1.6 ms
QRS ([1]; time 60 min): 21.8 ± 0.4 ms
QT ([1]; time 60 min): 55 ± 5.0 ms
Ki [2]: 108 nM
Ki [3]: 21.1 nM
H3/σ1 [3]: 0.03
H3/σ2 [3]: 0.20
IC50 [4]: 2660 ± 217 nM
Inhibition of hERG compared with verapamil [4]: about five times weaker
Effect on blood pressure ([5]; vs vehicle (1% Tween 80)): did not affect blood pressure
Ki [6]: 638 nM
σ1/σ2 [6]: 5.90
Effect on motor coordination (chimney test) ([9]; mice, 10-30 mg/kg i.p., Fisher exact probability test): decreases the ability to exit the chimney at all doses tested in one or two mice per group
